Results published in patent US20240206469A1, “PHOSPHORUS USE EFFICIENCY ENHANCERS AS PLANT GROWTH PROMOTORS” (EUROCHEM ANTWERPEN, priority 2021, published 2024).

Tests used:
[1] = test system: SPX1 phosphate starvation biomarker; test: Chemical activity assessment with Arabidopsis pSPX1::GUS reporter line (GUS stained area); assay type: in vivo, Arabidopsis thaliana; settings: low phosphate, 50 μM, 7 days after germination; compare with low phosphate controls of same plate (Table 5 c3)
Experimental: (§1) All Arabidopsis plant experiments were performed using the Arabidopsis thaliana Columbia-0 background. The Arabidopsis pSPX1::GUS line is described in the Plant Journal 2008, 54: 965-975. For rice, the cultivar Nipponbare was used. For maize, the cultivars DKC 2931 and B104 were used for regular pot experiments and sand-based pot experiments, respectively. For soybean, the cultivar Primus was used. […] The medium was solidified due to the addition of 0.6% Gelrite, unless stated otherwise. In case of vertical plates (root length and root hair measurements), the medium was supplied with 0.5% of sucrose and 1 μM (low phosphate, 1 μM KH2PO4, 9.9 mM KCl), 10 μM (low phosphate 10 μM KH2PO4, 9.9 mM KCl) or 1.25 mM KH2PO4 (high phosphate). Arabidopsis seeds were stratified for 2 days at 4° C. before germination. Seedlings were germinated in climate-controlled growth chambers at 22° C. under continuous light (100 μmol m^−2 s^−1). Husked rice seeds were germinated on wetted Whatman paper for 2 days at 37° C. and then transferred to Sterivent boxes or square Petri dishes with solid medium. Maize and soybean seeds were wetted 24 hours at room temperature prior to sowing in pots.
For the chemical activity assessment 3 to 8 seeds per well of Arabidopsis pSPX1::GUS line were sown in 96-well plates containing 150 μl of low phosphate modMS liquid medium containing 1% of sucrose. Compounds were added in 50 μM concentration, starting from a 5 mM stock of compounds solved in DMSO. Different chemical substances were separately added to different wells. Per plate, 16 control wells were used, 8 containing only the low phosphate medium and 1% DMSO, and 8 containing high phosphate medium and 1% DMSO. 7 days after germination, plates were scanned using a flatbed scanner (EPSON Expression 11000XL) and analyzed for leaf size. After scanning, the growth medium was replaced by GUS staining solution (see Plant Mol. Biol. Rep. 1994, 12: 37-42 for details) and incubated for 1.5 hours at 37° C. The plates were scanned a second time and analyzed for GUS signal area. Measurements of both leaf area and GUS signal area were conducted by filtering out and measure the green and blue signal, respectively using ImageJ software. If the green leaf area was 50% or less than the control, samples were omitted. Additionally, all results were visually screened for leaf size and GUS signal.

Maize = Maize growth experiment in pots with mixture of unfertilized potting soil and sand (leaf 5); assay type: in vivo
Experimental: For a subset of compounds, we performed a more extensive analysis on their root hair inducing effect in a dose-response experiment (Table 3). This confirms that the more simple structures 8.14 and 8.14.6 still retain the activity of compound 8. […] To validate this, we performed a maize growth experiment using compound 8 and the, based on the increase of total root hair length, stronger variant 8.14.6. The experiment was conducted in pots with a mixture of unfertilized potting soil and sand, and leaf 5 was measured after 29 days (Table 4).

Arabidopsis root hairs = test: Root hair number and length quantification; assay type: in vivo, Arabidopsis thaliana; settings: Arabidopsis thaliana, read-out: Total root hair length per root (in % compared to the control)
Experimental: as §1
Roots were imaged using a stereomicroscope or a VHX-6000. Number and length of the root hairs parallel to the medium surface was determined at 4 to 6 mm above the root meristem. Root hair length was measured using the ImageJ software.

Structure (SMILES)	GUS (SPX1) stained area normalized to the number of seeds [1] [pixels]	activity at 0.6 µM (Arabidopsis root hairs) [%]	activity at 1.25 µM (Arabidopsis root hairs) [%]	further results
CN(Cc1ccc(Br)s1)C(=O)CN1C(=O)CCOc2ccccc21 [Compound 8.14.2]	39	–	–	–
O=C(CN1CC(C(=O)N2CCCCC2)Oc2ccccc21)N1CC=C(c2ccccc2)CC1 (centres unmarked) [Compound 8.14.1]	22	–	–	–
COc1ccc([N+](=O)[O-])cc1NCC(=O)N1CCCC1c1cccs1 (centres unmarked) [Compound 8.14.5]	93	–	–	–
COc1ccc(C)cc1NCC(N)=O [Compound 8.14.6]	2	231	592	Growth-promoting effect on maize versus compound 8 (Maize; leaf 5 after 29 days): even a stronger growth-promoting effect; Leaf 5 (Maize; maize, pots with unfertilized potting soil and sand, after 29 days, control 38.1): 41.8 cm
Cc1ccc2c(c1)OC(C)CN2CC(N)=O (centres unmarked) [Compound 8.14]	2	231	343	activity at 2.5 µM (Arabidopsis root hairs; 2.5 μM): 493%; activity at 5 µM (Arabidopsis root hairs; 5 μM): 803%
CC(C)(C)c1csc(NC(=O)CN2C(=O)COc3ccccc32)n1 [Compound 8.14.4]	46	–	–	–
